Structures are written as SMILES.

The assay addresses human thrombin (Homo sapiens, UniProt P00734). Briefly: Thrombin amidase inhibition (Kass), chromogenic substrate. The class given is biochemical. The protocol:
The assay is carried out by mixing 50 μl buffer (0.03M Tris, 0.15M NaCl, pH 7.4) with 25 μl of human thrombin solution (purified human thrombin, Enzyme Research Laboratories, South Bend, Ind., at 8 NIH units/ml) and 25 μl of test compound in a solvent (50% aqueous methanol (v:v)). Then 150 μl of an aqueous solution of the chromogenic substate (at 0.25 mg/ml) are added and the rates of hydrolysis of the substrate are measured by monitoring the reactions at 405 nm for the release of p-nitroaniline. Standard curves are constructed by plotting free thrombin concentration against hydrolysis rate. […] The amount of free inhibitor in each assay is calculated by subtracting the number of moles of bound thrombin from the number of moles of added inhibitor (test compound).
The Kass value is the hypothetical equilibrium constant for the reaction between thrombin and the test compound (I) . [formula]
Kass is calculated for a range of concentrations of test compounds and the mean value reported in units of liter per mole.
As for `Cl.Cl.N=C(N)NCCC[C@@H](C=O)NC(=O)[C@@H]1CCCN1C(=O)C1CNC2CCCCC21.O` (stereo partly drawn) [Example 20, 3-perhydroindolylcarbonyl-L-pro-L-Arginine Aldehyde Dihydrochloride Monohydrate], the “Kass Human Thrombin” value is given as 11 L/mol × 10^6. To `Cl.Cl.N=C(N)NCCC[C@@H](C=O)NC(=O)[C@@H]1CCCN1C(=O)C1CCCNC1.O` (stereo partly drawn) [Example 19, 3-piperidinocarbonyl-L-Pro-L-Arginine Aldehyde Dihydrochloride Monohydrate] belongs 2 L/mol × 10^6. On to `Cl.Cl.Cl.N=C(N)NCCC[C@@H](C=O)NC(=O)[C@@H]1CCCN1C(=O)[C@H]1C[C@H](Oc2ccc3ccccc3c2)CN1.O` [Example 6, trans-4-(2-Naphthyloxy)-D-Prolinyl-L-Prolinyl-L-Arginine Aldehyde Trihydrochloride Monohydrate], for which the “Kass Human Thrombin” value worked out at 21 L/mol × 10^6. The value for `CC(C)C1N[C@@H](C(=O)N2CCC[C@H]2C(=O)N[C@H](C=O)CCCNC(=N)N)C(C)(C)S1.Cl.Cl` (stereo partly drawn) [Example 5, D-2-Isopropyl-5,5-Dimethylthiazolidinyl-4-Carbonyl-L-Prolinyl-L-Arginine Aldehyde Dihydrochloride] was 4 L/mol × 10^6.

Consider `Cl.Cl.N=C(N)NCCC[C@@H](C=O)NC(=O)[C@@H]1CCCN1C(=O)CN1CCCCC1.O` [Example 18, 2-(2-Piperidino)acetyl-L-Pro-L-Arginine Aldehyde Dihydrochloride Monohydrate], for which the “Kass Human Thrombin” value worked out at 1 L/mol × 10^6.

Turning to `Cl.Cl.Cl.N=C(N)NCCC[C@@H](C=O)NC(=O)[C@@H]1CCCN1C(=O)[C@H]1C[C@H](Sc2ccccc2)CN1.O.O.O` [Example 14, trans-4-phenylthio-D-prolinyl-L-prolinyl-L-arginine aldehyde trihydrochloride trihydrate], the “Kass Human Thrombin” value is 37 L/mol × 10^6. The value for `CNC1CCCCC1C(=O)N1CCC[C@H]1C(=O)N[C@H](C=O)CCCNC(=N)N.Cl.Cl` (stereo partly drawn) [Example 21, 2-(N-methyl)aminocyclohexyl-carbonyl-L-Pro-L-Arginine Aldehyde Dihydrochloride] was 18.4 L/mol × 10^6.

The values above are taken from patent US5436229A, “Bisulfite adducts of arginine aldehydes” (Eli Lilly and Company, priority 1994, dated 1995).
